Experimental findings from ChEMBL document CHEMBL4613212, “Insights of synthetic analogues of anti-leprosy agents” (Bioorg Med Chem, 2019) are described below.

In brackets after ≈: the same amount, converted by molar mass.

The first test has as its system Mycolicibacterium smegmatis. Description: Antimycobacterial activity against DDS sensitive Mycobacterium smegmatis ATCC 607 […]. Format: functional.
By MIC is commonly meant the smallest concentration in the dilution series that meets the test's criterion for growth inhibition. Molecule `CCNc1ccc(S(=O)(=O)c2ccc(N)cc2)cc1` yielded an MIC of 54.4 mg/L (≈ 197 µM).

In turn, `Nc1ccc(S(=O)(=O)c2ccc(Br)cc2)cc1` gave an MIC of 319 mg/L (≈ 1020 µM).

Take `Nc1ccc(S(=O)(=O)c2ccccc2N)cc1`: inhibition of growth (MIC) required 44.2 mg/L (≈ 178 µM).

For `CCN(CC)c1ccc(S(=O)(=O)c2ccc(N)cc2)cc1`, the MIC is over 164 mg/L.

In turn, `CNc1ccc(S(=O)(=O)c2ccc(N)cc2)cc1` returned an MIC of 37.3 mg/L (≈ 142 µM).

Turning to `CCCCCN(CCCCC)c1ccc(S(=O)(=O)c2ccc(N)cc2)cc1`, the minimum inhibitory concentration (MIC) is over 257 mg/L.

In turn, `O=S(=O)(c1ccc(O)cc1)c1ccc(O)cc1` displayed an MIC of 400 mg/L (≈ 1600 µM).

The molecule `Nc1cccc(S(=O)(=O)c2cccc(N)c2)c1` returned an MIC of 806 mg/L (≈ 3250 µM).

The subject of a further test is Mycobacterium tuberculosis. The test is described as follows: Antitubercular activity against Mycobacterium tuberculosis H37Rv ATCC 27294 assessed as growth inhibition at 6.25 ug/ml by microplate alamar blue assay relative to control. Format: functional. A general note: The colour change of resazurin is a common sign of viable cells or microbes.
A word on the inhibition: it is the relative decrease from the control value, in per cent. Regarding `OC[C@H]1O[C@@H](n2cnc3c(-c4ccco4)ncnc32)[C@H](O)[C@@H]1O`, the inhibition at 6.25 µg/mL was determined as 0%.

For the molecule `CC(=O)OC[C@H]1O[C@@H](n2cnc3c(Cl)ncnc32)[C@H](OC(C)=O)[C@@H]1OC(C)=O`, the inhibition at 6.25 µg/mL was determined as 4%.

As for `OC[C@H]1O[C@@H](n2cnc3c(-c4cccs4)ncnc32)[C@H](O)[C@@H]1O`, the inhibition at 6.25 µg/mL is 6%.

With `c1coc(-c2[nH]cnc3ncnc2-3)c1`, the inhibition at 6.25 µg/mL worked out at 6%.

For a further test, the system named is Mycobacterium tuberculosis. Description: Antimycobacterial activity against Mycobacterium tuberculosis H37Rv by BACTEC radiometric growth assay. Format: functional.
On to `CCCCCCCC/C=C/S(=O)(=O)CC(N)=O`, for which it took 12.5 mg/L (≈ 47.8 µM) to inhibit growth (MIC).

As to `CCCCCCCCCC[S+]([O-])CCC(N)=O` (stereo unspecified), the lowest concentration to inhibit growth (MIC) was 6.25 mg/L (≈ 23.9 µM).

`CCCCCCCCS(=O)(=O)CC(=O)OC` showed an MIC of over 25 mg/L.

In the case of `C.CCCCCCCCC[S+]([O-])CC(=O)OC` (racemic), the minimum inhibitory concentration (MIC) was over 25 mg/L.

For the molecule `CCCCCCCC[S+]([O-])CC(=O)OCc1ccccc1` (stereo unspecified), the MIC is 6.25 mg/L (≈ 20.1 µM).

Molecule `CCCCCCCC[S+]([O-])CC(=O)O` (stereo unspecified) gave an MIC of over 25 mg/L.

Turning to `CCCCCCCCS(=O)(=O)NS(C)(=O)=O`, the MIC was over 25 mg/L.

Regarding `C=C/C(C)=C/[C@@]1(C)SC(=O)C(C)=C1O` [THIOLACTOMYCIN], the MIC was determined as 25 mg/L (≈ 119 µM).

For the molecule `NC(=O)CS(=O)(=O)CCCCc1ccccc1`, the MIC is over 25 mg/L.

On to `CCCCCCCC[S+]([O-])CC(=O)OC` (stereo unspecified), for which the lowest concentration to inhibit growth (MIC) was 12.5 mg/L (≈ 53.3 µM).

`CCCCCCCCCCS(=O)(=O)C(C)C(N)=O` (stereo unspecified) displayed an MIC of over 25 mg/L.

With `CCCCCCCCC[S+]([O-])CC(=O)OC` (stereo unspecified), the MIC was 6.25 mg/L (≈ 25.2 µM).

The molecule `CC(C)CCCCCCCS(=O)(=O)CC(N)=O` showed an MIC of 1.5 mg/L (≈ 5.69 µM).

In turn, `CCCCCCCCC[S@@+]([O-])CC(=O)OC` gave an MIC of over 25 mg/L.

For the molecule `CC(=O)Nc1ccc(S(=O)(=O)c2ccc(NC(C)=O)cn2)cc1`, the MIC was determined as 12.5 mg/L (≈ 37.5 µM).

On to `CCCCCC/C=C/S(=O)(=O)CC(N)=O`, for which the MIC turned out to be 12.5 mg/L (≈ 53.6 µM).

In turn, `CCCCCCCCCCSCCC(N)=O` showed an MIC of 25 mg/L (≈ 102 µM).

`NC(=O)c1cnccn1` [PYRAZINAMIDE] gave an MIC of 100 mg/L (≈ 812 µM).

The molecule `C.CCCCCCCCC[S+]([O-])CC(N)=O` (racemic) had an MIC of 25 mg/L.

The molecule `CC(=O)Nc1ccc(S(=O)(=O)c2ccc(NC(C)=O)c(Cl)c2)cc1` came in with a minimal inhibitory concentration (MIC) of over 25 mg/L.

With `CCCCCCCCS(=O)(=O)NS(N)(=O)=O`, the MIC was over 25 mg/L.

In turn, `C/C=C/C/C=C/CCC(=O)[C@H]1O[C@H]1C(N)=O` [CERULENIN] gave an MIC of 0.5 to 1.5 mg/L (≈ 2.24 to 6.72 µM).

Turning to `CCCCCCCCC[S@@+]([O-])CC(N)=O`, the MIC was 25 mg/L (≈ 107 µM).

`CCOCCOCCS(=O)(=O)CC(N)=O`: the MIC is over 25 mg/L.

Molecule `CC[C@@H](CO)NCCN[C@@H](CC)CO` [ETHAMBUTOL] came in with an MIC of 2 mg/L (≈ 9.79 µM).

In turn, `NC(=O)CS(=O)(=O)CCCCCCc1ccccc1` registered an MIC of over 25 mg/L.

In the case of `CCCCCCCCOCC(N)=O`, the MIC was over 25 mg/L.

The molecule `CC(C)CCCC(C)CCS(=O)(=O)CC(N)=O` (stereo unspecified) gave an MIC of 6.25 mg/L (≈ 23.7 µM).

Consider `NC(=O)CS(=O)(=O)CCCCCc1ccccc1`, for which the MIC is 12.5 to 25 mg/L (≈ 46.4 to 92.8 µM).

`CCCCCCCCS(=O)(=O)NC(N)=O` came in with a minimal inhibitory concentration (MIC) of over 25 mg/L.

`CCCCCCCCC[S@+]([O-])CC(=O)OC`: the minimal inhibitory concentration (MIC) is over 25 mg/L.

For the molecule `CCCCCCCCC[S@+]([O-])CC(N)=O`, the lowest concentration to inhibit growth (MIC) was 25 mg/L (≈ 107 µM).

On to `CCCCCCCCCCS(=O)(=O)CCC(N)=O`, for which the MIC was over 25 mg/L.

The molecule `CCCCCCCCCCP(=O)([O-])CCC(N)=O.[K+]` yielded an MIC of over 50 mg/L.
